Measurements: patent publication US20200368198A1, “METHODS FOR INCREASING FERTILITY” (NEWSOUTH INNOVATIONS PTY LIMITED, priority 2017, published 2020)
Where “and” joins values, the source holds several entries; their conditions need not be identical. Identical values can stand only once.

How the values were obtained:
[1] = tested on: wild-type and NMNAT1-Tg female mice; assay: Oocyte yield following doxorubicin in wild-type or NMNAT1-Tg mice; type: in vivo; conditions: 10 mg/kg i.p., two months later, PMSG, per mouse
Protocol: As in Example 2, 7 week-old female wild-type (“WT”) control or their littermates overexpressing NMNAT1 (“NMNAT1-Tg”) were treated with doxorubicin (10 mg/kg, i.p. injection). […] Two months later, animals were super-ovulated with PMSG, euthanased, and ovaries punctured to release MI oocytes, which were counted (FIG. 18 and Table 9).

C57BL6 female mice [2] = assay: Mating trial after doxorubicin with or without NMN co-treatment; type: in vivo; conditions: for Number of mating rounds required to achieve pregnancy: the values are: cumulative % of females pregnant by round
Protocol: Following oocyte counting and analysis of oocyte meiotic progression, as well as a separate cohort of animals for histological ovarian analysis, a separate cohort of animals were treated as indicated, and mated with stud males of proven track record, to assess the ability of animals to deliver live births following chemotherapy treatment in the presence of absence of NMN co-treatment.

C57BL6 female mice [3] = assay: Cumulus oocyte complex yield after PMSG superovulation, doxorubicin with or without NMN; type: in vivo; conditions: per mouse, single dose doxorubicin 10 mg/kg i.p. and/or NMN 2 g/L drinking water, 2 months post doxorubicin
Protocol: To assess oocyte yield, and mice were hormonally stimulated to superovulated by intraperitoneal injection with 7.5 IU/mL of Pregnant Mare's Serum Gonadotropin (PMSG) (Folligon; Intervet, Boxmeer, Holland) to stimulate follicular growth. After 44-46 hours, ovaries were collected in HEPES-buffered minimum essential medium (aMEM; […] Sigma Aldrich, St. Louis, Mo.) and 100 μM IBMX (Sigma Aldrich). […] NMN was delivered through addition to drinking water at 2 g/L, for a final dose of approximately 165 mg/kg. Administration of NMN began one day prior to doxorubicin administration. […] Ovaries were then punctured to release MI oocytes. In a separate cohort of animals, the same experiment was repeated using animals treated with the platinum based chemotherapy drug cisplatin. In FIG. 6 and Table 1, numbers of cumulus oocyte complexes are listed.

oocytes [4] = assay: Meiotic progression (GVBD, PBE) of harvested oocytes, doxorubicin with or without NMN; type: in vivo, mice; conditions: doxorubicin and/or NMN
Source text: Once harvested from ovaries, oocytes were stored in IBMX media to prevent progression into meiosis.

C57BL6 females [5] = assay: Reversal design: primordial follicle counts in ovarian histology sections; type: in vivo, mice; conditions: doxorubicin 10 mg/kg i.p., NMN in drinking water started four weeks later for 4 weeks; per mouse
Source text: Ovaries were dissected from freshly euthanased animals, and preserved in 10% neutral buffered formalin for 24 hr, followed by 70% ethanol, until embedding in paraffin blocks. Blocks were sectioned on a microtome and subjected to haematoxylin and eosin (H&E) staining. Primordial follicles were manually counted by a blinded investigator.
Next, we decided to investigate whether NMN treatment delivered some time following chemotherapy treatment could actively reverse chemotherapy induced infertility. […] Four weeks later, they received NMN in their drinking water, for another 4 weeks, prior to being euthanased for either oocyte studies or ovarian histological analysis. The rationale of this experimental design is to investigate whether NMN has the ability to induce regeneration of the ovary. According to the standard dogma of reproductive biology, mammals are born with a set number of follicles which are slowly released as oocytes over the course of a lifetime, with the ovaries incapable of regenerating new follicles.

NAMPT = NAMPT (Homo sapiens, UniProt P43490); conditions: in vitro; cited from earlier work
NAMPT, sequence (P43490 whole entry, species assumed): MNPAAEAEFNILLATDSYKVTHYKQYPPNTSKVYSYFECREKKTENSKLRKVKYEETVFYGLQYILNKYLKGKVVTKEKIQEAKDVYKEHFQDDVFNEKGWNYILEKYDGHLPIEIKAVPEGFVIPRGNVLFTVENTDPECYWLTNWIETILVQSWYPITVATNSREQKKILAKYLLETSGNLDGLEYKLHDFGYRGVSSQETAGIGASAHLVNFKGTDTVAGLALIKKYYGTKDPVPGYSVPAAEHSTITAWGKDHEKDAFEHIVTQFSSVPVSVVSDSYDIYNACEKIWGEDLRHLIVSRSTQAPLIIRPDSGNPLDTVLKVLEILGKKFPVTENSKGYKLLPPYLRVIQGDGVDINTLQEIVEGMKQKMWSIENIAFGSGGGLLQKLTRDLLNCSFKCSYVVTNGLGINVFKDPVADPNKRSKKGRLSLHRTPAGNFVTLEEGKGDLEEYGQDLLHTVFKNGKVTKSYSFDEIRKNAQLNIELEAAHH

CD38 = molecular target: T1, CD38 (Homo sapiens, UniProt P28907); conditions: in vitro; cited from earlier work
T1 sequence (P28907 1-300): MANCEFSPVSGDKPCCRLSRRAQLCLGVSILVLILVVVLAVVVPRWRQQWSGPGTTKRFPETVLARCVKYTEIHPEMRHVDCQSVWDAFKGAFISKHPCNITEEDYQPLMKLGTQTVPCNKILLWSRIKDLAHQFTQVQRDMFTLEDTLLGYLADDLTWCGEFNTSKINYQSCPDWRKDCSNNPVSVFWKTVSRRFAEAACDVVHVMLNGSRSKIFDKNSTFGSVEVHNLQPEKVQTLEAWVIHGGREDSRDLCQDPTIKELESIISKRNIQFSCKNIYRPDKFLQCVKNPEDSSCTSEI

C57BL6 female mice [6] = assay: Cumulus oocyte complex yield after PMSG, cisplatin with or without NMN; type: in vivo; conditions: per mouse, single dose cisplatin 5 mg/kg i.p. and/or NMN 2 g/L drinking water, two months later
Protocol: To assess oocyte yield, and mice were hormonally stimulated to superovulated by intraperitoneal injection with 7.5 IU/mL of Pregnant Mare's Serum Gonadotropin (PMSG) (Folligon; Intervet, Boxmeer, Holland) to stimulate follicular growth. After 44-46 hours, ovaries were collected in HEPES-buffered minimum essential medium (aMEM; Gibco Life Technologies, Grand Island, N.Y.) supplemented with 50 µM of 3-isobuty-1-methylxanthine (IBMX) (Sigma aldrich, NSW, AU) (M2 medium) to maintain meitotic arrest at germinal vesicle stage. Cumulus oocyte complexes (COCs) were isolated from preovulatory follicles using a 27-gauge needle and collected using flame-pulled borosilicate Pasteur pipettes in M2 medium supplemented with 3 mg/ml bovine serum albumin (BSA; Sigma Aldrich, St. Louis, Mo.) and 100 μM IBMX (Sigma Aldrich). Cumulus oocyte complexes (COCs) were mechanically denuded of cumulus cells by pipetting, and the denuded oocytes were transferred to another dish containing a drop of fresh M2-medium plus IBMX on heat block with 37° C. with lid to protect oocytes from light. […]

oocytes [7] = assay: Meiotic progression (GVBD, PBE) of harvested oocytes, cisplatin with or without NMN; type: in vivo, mice; conditions: cisplatin and/or NMN
Protocol: Once harvested from ovaries, oocytes were stored in IBMX media to prevent progression into meiosis. Once released from IBMX, meiotic progression was assessed by the proportions of oocytes achieving germinal vesicle breakdown (GVBD) for meiosis I, and polar body extrusion (PBE) for meiosis II, with results shown in FIGS. 7 and 8 and Tables 2 and 3.
Again, as in Example 2 above, the oocytes which were harvested from these studies were allowed to progress down meiosis, in order to assess meiotic progression rates (FIGS. 16 and 17 and Table 7 and 8).

C57BL6 females [8] = assay: Reversal design: oocyte yield, cisplatin followed by NMN 4 weeks later; type: in vivo, mice; conditions: cisplatin 5 mg/kg i.p., per mouse
Protocol: To assess oocyte yield, and mice were hormonally stimulated to superovulated by intraperitoneal injection with 7.5 IU/mL of Pregnant Mare's Serum Gonadotropin (PMSG) (Folligon; Intervet, Boxmeer, Holland) to stimulate follicular growth. After 44-46 hours, ovaries were collected in HEPES-buffered minimum essential medium (aMEM; Gibco Life Technologies, Grand Island, N.Y.) supplemented with 50 µM of 3-isobuty-1-methylxanthine (IBMX) (Sigma aldrich, NSW, AU) (M2 medium) to maintain meitotic arrest at germinal vesicle stage. Cumulus oocyte complexes (COCs) were isolated from preovulatory follicles using a 27-gauge needle and collected using flame-pulled borosilicate Pasteur pipettes in M2 medium supplemented with 3 mg/ml bovine serum albumin (BSA; Sigma Aldrich, St. Louis, Mo.) and 100 μM IBMX (Sigma Aldrich). Cumulus oocyte complexes (COCs) were mechanically denuded of cumulus cells by pipetting, and the denuded oocytes were transferred to another dish containing a drop of fresh M2-medium plus IBMX on heat block with 37° C. with lid to protect oocytes from light.
Next, we decided to investigate whether NMN treatment delivered some time following chemotherapy treatment could actively reverse chemotherapy induced infertility. […]

[9] = molecular target: NADH:quinone oxidoreductase (NQ01) (Homo sapiens, UniProt P15559); conditions: cited from earlier work
NADH:quinone oxidoreductase (NQ01), sequence (P15559 whole entry): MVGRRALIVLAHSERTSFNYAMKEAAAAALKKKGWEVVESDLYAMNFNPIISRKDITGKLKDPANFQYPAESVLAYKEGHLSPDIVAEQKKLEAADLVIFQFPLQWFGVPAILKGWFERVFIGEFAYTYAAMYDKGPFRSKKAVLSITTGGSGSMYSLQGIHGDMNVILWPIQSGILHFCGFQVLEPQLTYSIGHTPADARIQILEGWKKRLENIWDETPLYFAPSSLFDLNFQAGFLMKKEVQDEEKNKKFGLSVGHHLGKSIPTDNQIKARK

SMILES: COc1cccc2c1C(=O)c1c(O)c3c(c(O)c1C2=O)C[C@@](O)(C(=O)CO)C[C@@H]3O[C@H]1C[C@H](N)[C@H](O)[C@H](C)O1 [Dox, doxorubicin]
- Oocyte yield following doxorubicin treatment ([1]; NMNAT1-Tg mice): 13 (2×) and 12 and 11 and 15 and 10 (2×) and 18
- Oocyte yield following doxorubicin treatment ([1]; wild-type mice): 1 (2×) and 4 (2×) and 2 and 7 and 9 (2×) and 3
- Number of mating rounds required to achieve pregnancy (C57BL6 female mice [2]; Round 0): 0%
- Number of mating rounds required to achieve pregnancy (C57BL6 female mice [2]; Round 1): 60%
- Number of mating rounds required to achieve pregnancy (C57BL6 female mice [2]; Round 2): 90%
- Number of mating rounds required to achieve pregnancy (C57BL6 female mice [2]; Round 3): 90%
- Number of live pups born per litter (C57BL6 female mice [2]; per litter, female C57BL6 mice treated with doxorubicin and/or NMN, mated): strong reduction
- Numbers of cumulus oocyte complexes released from mice (C57BL6 female mice [3]): 1 and 8 and 9 and 3 and 6 and 7 and 5
- Proportion of harvested oocytes achieving germinal vesicle breakdown (oocytes [4]; 1 h after release from IBMX): 19 % of total
- Proportion of harvested oocytes achieving germinal vesicle breakdown (oocytes [4]; 2 h after release from IBMX): 92 % of total
- Proportions of oocytes achieving polar body extrusion (oocytes [4]; 14 hr following GVBD): 21
- Proportions of oocytes achieving polar body extrusion (oocytes [4]; 16 hr following GVBD): 52
- Proportions of oocytes achieving polar body extrusion (oocytes [4]; 20 hr following GVBD): 81
- Primordial follicle numbers in ovarian histology sections (C57BL6 females [5]): 34 and 50 and 49 and 41

SMILES: OC(CNc1ccccc1)Cn1c2ccc(Br)cc2c2cc(Br)ccc21 (stereo not shown) [P7C3]
- Effect on NAMPT activity (NAMPT): enhances activity of NAMPT in vitro

SMILES: O=c1cc(-c2ccc(O)cc2)oc2cc(O)cc(O)c12 [apigenin, 5,7-dihydroxy-2-(4-hydroxyphenyl)-4H-1-benzopyran-4-one]
- Inhibition of CD38 activity (CD38): inhibitors of CD38 activity in vitro

SMILES: N.N.[Cl][Pt][Cl] [cisplatin]
- Numbers of cumulus oocyte complexes released from mice (C57BL6 female mice [6]): reduces oocyte yield and 10 and 5 and 6 and 0 and 4 and 9
- Proportion of harvested oocytes achieving germinal vesicle breakdown (oocytes [7]; 1 h after release from IBMX): 43 % of total
- Proportion of harvested oocytes achieving germinal vesicle breakdown (oocytes [7]; 2 h after release from IBMX): 100 % of total
- Proportion of harvested oocytes achieving polar body extrusion (oocytes [7]; 14 hr following completion of GVBD): 40 % of total
- Proportion of harvested oocytes achieving polar body extrusion (oocytes [7]; 16 hr following completion of GVBD): 70 % of total
- Proportion of harvested oocytes achieving polar body extrusion (oocytes [7]; 20 hr following completion of GVBD): 85 % of total
- Oocyte yield (C57BL6 females [8]): 6 and 5 (2×) and 2 and 4

SMILES: O=c1c(O)c(-c2ccc(O)c(O)c2)oc2cc(O)cc(O)c12 [quercetin, 2-(3,4-dihydroxyphenyl)-3,5,7-trihydroxy-4H-chromen-4-one]
- Inhibition of CD38 activity (CD38): inhibitors of CD38 activity in vitro

SMILES: CC1(C)CCC2=C(O1)c1ccccc1C(=O)C2=O [β-lapachone, 3,4-dihydro-2,2-dimethyl-2H-napthol[1,2-b]pyran-5,6-dione]
- Effect on NQ01 [9]: activates the enzyme NADH:quinone oxidoreductase (NQ01)
